One series concerns Bone marrow cell. Description: Cytotoxicity against rat bone marrow cells assessed as reduction in cell viability after 72 hrs by celltiter glo assay. In kind it is cell-based.
The target in series [1] is Voltage-gated inwardly rectifying potassium channel KCNH2 (Homo sapiens, UniProt Q12809). Put plainly: Binding affinity to human ERG by dofetilide fluorescence polarization binding assay. (In general: Fluorescence polarisation rises when a labelled molecule tumbles more slowly, as on binding a larger partner.)
Voltage-gated inwardly rectifying potassium channel KCNH2, sequence (Q12809 whole entry): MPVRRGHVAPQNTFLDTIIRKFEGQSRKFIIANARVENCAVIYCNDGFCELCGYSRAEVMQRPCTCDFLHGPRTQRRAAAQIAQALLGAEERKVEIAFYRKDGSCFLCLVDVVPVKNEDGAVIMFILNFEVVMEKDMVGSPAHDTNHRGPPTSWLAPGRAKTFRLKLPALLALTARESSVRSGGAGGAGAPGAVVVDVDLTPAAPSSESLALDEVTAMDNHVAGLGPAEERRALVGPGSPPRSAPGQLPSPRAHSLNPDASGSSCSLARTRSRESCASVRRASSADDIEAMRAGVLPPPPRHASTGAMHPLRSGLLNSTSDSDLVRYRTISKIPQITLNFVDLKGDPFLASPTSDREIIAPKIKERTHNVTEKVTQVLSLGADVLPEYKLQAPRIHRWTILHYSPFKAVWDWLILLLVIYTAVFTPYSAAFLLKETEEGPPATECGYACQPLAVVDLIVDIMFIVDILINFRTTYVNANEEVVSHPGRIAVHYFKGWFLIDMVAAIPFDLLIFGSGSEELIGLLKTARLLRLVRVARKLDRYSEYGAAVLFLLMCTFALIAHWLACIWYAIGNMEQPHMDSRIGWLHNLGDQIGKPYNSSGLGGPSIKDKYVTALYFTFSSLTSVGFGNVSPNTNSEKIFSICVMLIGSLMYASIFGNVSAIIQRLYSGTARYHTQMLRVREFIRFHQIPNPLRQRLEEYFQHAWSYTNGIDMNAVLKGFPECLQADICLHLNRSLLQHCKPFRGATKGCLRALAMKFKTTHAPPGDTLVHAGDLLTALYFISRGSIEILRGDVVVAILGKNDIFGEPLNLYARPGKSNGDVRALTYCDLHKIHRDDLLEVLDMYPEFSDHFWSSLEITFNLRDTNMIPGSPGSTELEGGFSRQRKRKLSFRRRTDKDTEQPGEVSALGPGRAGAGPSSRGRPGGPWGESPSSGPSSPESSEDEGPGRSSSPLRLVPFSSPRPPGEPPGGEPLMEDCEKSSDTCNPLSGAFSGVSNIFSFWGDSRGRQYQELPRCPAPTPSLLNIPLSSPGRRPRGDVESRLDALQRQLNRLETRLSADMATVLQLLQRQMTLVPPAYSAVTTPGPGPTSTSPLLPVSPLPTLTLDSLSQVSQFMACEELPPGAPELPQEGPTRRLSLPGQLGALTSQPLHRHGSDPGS
Series [2] in a line: Lipophilicity, log D of the compound by shake flask method. In kind it is physicochemical. The settings on record: octanol/water.
The nature of series [3]: Intrinsic clearance in human liver microsomes. In kind it is ADME, Microsome. To be noted: read-out: CLH. (In general: Liver microsomes are vesicles of endoplasmic reticulum, rich in cytochrome P450 enzymes.)
Series [4] addresses 80S Ribosome. Put plainly: Binding affinity to 80S ribosome in human HeLa cells lysates using human full length PCSK9 encoding mRNAs assessed as inhibition of PCSK9 mRNA translation after 45 mins by Steady-Glo luciferase reporter gene assay. In kind it is cell-free.
In series [5] the target is 80S Ribosome. Put plainly: Binding affinity to 80S ribosome in human HuH7 cells harboring human PCSK9 (1 to 152 residues)-proLuc assessed as inhibition of PCSK9 mRNA translation after overnight incubation by luciferase reporter gene assay. The settings on record: huh-7. In kind it is cell-based. On the technique in general: Reporter assays use an easily measured gene product as a stand-in for the process of interest.

Series [6] is described as follows: Permeability in RRCK cells measured up to 1.5 hrs. In kind it is ADME, cell-based, Canis lupus familiaris, MDCKII-LE. The settings on record: dog, MDCK; read-out: permeability.

For `O=C(N1CCC(c2ccccc2)CC1)N(c1nccc2ccccc12)[C@@H]1CCCNC1`, the figures for the IC50 in the series on Bone marrow cell, on 80S Ribosome [4] and on 80S Ribosome [5] were 12.7 µM, 1.54 µM and 1.73 µM, respectively. The Ki (as a rule, a measure of affinity in units of concentration, obtained from inhibition or displacement) in series [1] is 4.1 µM. In addition, the logD – broadly, the decadic logarithm of the distribution of all forms, ionised or not, between an organic phase and buffer at a given pH – in series [2] came to 1.4. In addition, the microsomal CLint in series [3] came to 13.9 µL/min/mg. Further, the Papp at 1.5 h in series [6] turned out to be 3.9 ×10⁻⁶ cm/s.

As to `COc1ccc(CCC(=O)N(c2nccc3ccccc23)[C@@H]2CCCNC2)cc1`, in series [2], the logD was 1. In addition, at 80S Ribosome [4], the 50% inhibitory concentration (IC50) – broadly, the concentration that inhibits the measured activity by half – is 8.04 µM.

With `Cc1nccnc1N(C(=O)N1CCC(c2ccccc2)CC1)[C@@H]1CCCNC1`, the half-maximal inhibitory concentration (IC50) was greater than 100 µM in the series on Bone marrow cell and 3.63 µM on 80S Ribosome [4]. In series [1], this compound registered an inhibitory constant (Ki) of 24.8 µM. Also, the pH-dependent lipophilicity (logD) in series [2] came to 0.3. Further, the microsomal CLint in series [3] is less than 8 µL/min/mg. The Papp at 1.5 h in series [6] worked out at 11.5 ×10⁻⁶ cm/s.

With `Cc1cccnc1N(C(=O)N1CCC(c2ccccc2F)CC1)[C@@H]1CCCNC1`, the values for the IC50 in the series on Bone marrow cell and at 80S Ribosome [4] were 46.2 µM and 4.38 µM, respectively. The compound also came in with an inhibition constant Ki in series [1] of 9.8 µM. This compound also returned a pH-dependent lipophilicity (logD) in series [2] of 1. The microsomal CLint in series [3] was less than 8 µL/min/mg. Also, the Papp at 1.5 h in series [6] came out at 9.5 ×10⁻⁶ cm/s.

Turning to `O=C(N1CCC(c2cnn3cccnc23)CC1)N(c1ncccc1Cl)[C@@H]1CCCNC1`, in series [2], the logD is -0.5. The microsomal CLint in series [3] was less than 8 µL/min/mg. For the same compound, the IC50 on 80S Ribosome [5] is greater than 20 µM. For the same compound, the Papp at 1.5 h in series [6] stood at 1.8 ×10⁻⁶ cm/s.

`Cc1cccnc1N(C(=O)N1CCC(c2ccccc2)CC1)[C@@H]1CCCNC1`: the Ki in series [1] is greater than 25 µM. In series [2], this compound showed a log distribution coefficient (logD) of 0.7. Besides, the microsomal CLint in series [3] was less than 8 µL/min/mg. Besides, the IC50 was determined as 2.33 µM at 80S Ribosome [4] and 2.05 µM at 80S Ribosome [5]. Further, the Papp at 1.5 h in series [6] came out at 8.7 ×10⁻⁶ cm/s.

For `O=C(c1ccc(-c2ccccc2)cc1)N(c1nccc2ccccc12)[C@@H]1CCCNC1`, the Papp at 1.5 h in series [6] stood at 0.3 ×10⁻⁶ cm/s.

In the case of `Cc1ccc2c(N3CCN(C(=O)N(c4nccc5ccccc45)[C@@H]4CCCNC4)CC3)noc2c1`, the figures for the IC50 in the series with Bone marrow cell and on 80S Ribosome [5] were 31.1 µM and 3.5 µM, respectively. In series [1], the affinity, expressed as Ki, was 1.2 µM. The same compound returned a log distribution coefficient (logD) in series [2] of 1.6. Moreover, the microsomal CLint in series [3] was found to be 12.9 µL/min/mg. Besides, the Papp at 1.5 h in series [6] is 8.9 ×10⁻⁶ cm/s.

Take `O=C(N1CCC(c2ccccc2)CC1)N(c1ncccc1Cl)[C@@H]1CCCNC1`: affinity in series [1] was put at a Ki of 14.3 µM. The same compound gave a logD in series [2] of 0.9. For the same compound, in series [3], the microsomal CLint was less than 9.3 µL/min/mg. Further, the IC50 on 80S Ribosome [4] worked out at 2.08 µM; on 80S Ribosome [5] it was 2.21 µM. Besides, the Papp at 1.5 h in series [6] turned out to be 12.8 ×10⁻⁶ cm/s.

For `Cc1cccnc1N(C(=O)N1CCC(c2cnn3cccnc23)CC1)[C@@H]1CCCNC1`, the half-inhibitory concentration (IC50) was found to be 10.1 µM with Bone marrow cell and 0.92 µM at 80S Ribosome [4]. In series [1], this compound registered a Ki greater than 40 µM. In series [2], this compound registered a logD of 0.2. In addition, the microsomal CLint in series [3] was less than 8 µL/min/mg. Also, the Papp at 1.5 h in series [6] was 1.8 ×10⁻⁶ cm/s.

In turn, `O=C(N1CCN(c2ccccc2)CC1)N(c1nccc2ccccc12)[C@@H]1CCCNC1` registered an inhibition constant (Ki) in series [1] of 9.2 µM. Besides, in series [2], the logD stood at 0.8. Further, the microsomal CLint in series [3] stood at 13.8 µL/min/mg. For the same compound, the IC50 on 80S Ribosome [5] was found to be 12.6 µM. Besides, the Papp at 1.5 h in series [6] came out at 5.8 ×10⁻⁶ cm/s.

Turning to `Cn1ccc2ccnc(N(C(=O)N3CCC(c4ccccc4)CC3)[C@@H]3CCCNC3)c21`, the half-inhibitory concentration (IC50) in the series with Bone marrow cell was found to be 11.7 µM; at 80S Ribosome [4], 0.5 µM. This compound also returned a Ki in series [1] of 5.7 µM. In series [2], this compound displayed a logD of 1.4. For the same compound, in series [3], the microsomal CLint amounted to 11.8 µL/min/mg. Further, the Papp at 1.5 h in series [6] amounted to 5.2 ×10⁻⁶ cm/s.

As to `Cc1cnc2c(c1)nnn2-c1ccc(CCC(=O)N(c2ncccc2Cl)[C@@H]2CCCNC2)nc1`, the IC50 came to 27.1 µM in the series with Bone marrow cell, 2.27 µM on 80S Ribosome [4] and 0.85 µM at 80S Ribosome [5]. In series [1], this compound had an inhibition constant (Ki) of 5.9 µM. The compound further returned a logD in series [2] of 0.7. Further, the microsomal CLint in series [3] was determined as 9.3 µL/min/mg. Besides, the Papp at 1.5 h in series [6] was 6.2 ×10⁻⁶ cm/s.

Values taken from ChEMBL document CHEMBL4325911, “Discovery of N-(piperidin-3-yl)-N-(pyridin-2-yl)piperidine/piperazine-1-carboxamides as small molecule inhibitors of PCSK9” (Bioorg Med Chem Lett, 2018).
